Assays:
[1] = system: adriamycin resistant MCF7 cells; assay: LIVE/DEAD viability/cytotoxicity assay, adriamycin resistant MCF7 cell spheroids in microfluidic device (compared with 2D monolayers)
[2] = system: co-cultured MCF7 and HS5 cells; assay: LIVE/DEAD viability assay, co-cultured MCF7 and HS5 fibroblast cell spheroids in microfluidic device; assay type: cell-based; settings: 3D spheroids, doxorubicin 3200 nM and 12800 nM, FIG. 7D
[3] = system: adriamycin sensitive MCF7 cells; assay: LIVE/DEAD viability/cytotoxicity assay, adriamycin sensitive MCF7 cell spheroids in microfluidic device (compared with 2D monolayers); assay type: cell-based
Method: FIGS. 6A and 6B show adriamycin resistant MCF7 cell spheroids at 96 hr incubation without doxorubicin (FIG. 6A) and at 48 hr incubation with 12.8 μM doxorubicin (FIG. 6B). […] FIGS. 6C and 6D show adriamycin sensitive MCF7 cell spheroids at 96 hr incubation without doxorubicin (FIG. 6C) and at 48 hr incubation with 12.8 μM doxorubicin (FIG. 6D).

[4] = 3D spheroids, doxorubicin 800 nM to 12800 nM, FIG. 7C

`COc1cccc2c1C(=O)c1c(O)c3c(c(O)c1C2=O)C[C@@](O)(C(=O)CO)C[C@@H]3O[C@H]1C[C@H](N)[C@H](O)[C@H](C)O1` [doxorubicin] was tested, and the “cell viability, 2D monolayers versus 3D spheroids” value ([1]; 12.8 μM doxorubicin, p<0.05, cells more susceptible in 2D than 3D, FIG. 7A) was “statistically significant difference in cell viability”, the “cell toxicity (red fluorescence, LIVE/DEAD assay)” value ([1]; 3D spheroids, 12.8 μM doxorubicin, 48 hr incubation, FIG. 6B) was “cell toxicity” and the “survival rate in spheroids” value [1, 4] was “high and comparable survival rates”. For the same molecule, the “overall cell survival rate in response to doxorubicin, with fibroblasts versus MCF7 adriamycin sensitive spheroids alone” value [2] was “significant increase in the overall cell survival rate”, the “susceptibility to doxorubicin (red fluorescent nuclei staining) versus adriamycin resistant cells” value ([3]; 3D spheroids, 12.8 μM doxorubicin, 48 hr incubation, FIG. 6D vs 6B) was “more susceptible to doxorubicin than the adriamycin resistant cells” and the “survival rate in spheroids” value [3, 4] was “high and comparable survival rates”. For the same molecule, the “cell viability, 2D monolayers versus 3D spheroids” value ([3]; doxorubicin 1600 nM to 12800 nM, p<0.05, FIG. 7B) was “statistically significant difference in cell viability”.

From patent US10928382B2, “Microfluidic device and method for analysis of tumor cell microenvironments” (Northeastern University, priority 2014, dated 2021)
